Measurements from ChEMBL document CHEMBL1136555, “Antitumour benzothiazoles. Part 20: 3'-cyano and 3'-alkynyl-substituted 2-(4'-aminophenyl)benzothiazoles as new potent and selective analogues” (Bioorg Med Chem Lett, 2003).
One block for each compound: values may come before it.

What was measured:
[1] = system: MCF7; test: (§1) Inhibitory activity of compound against breast cancer cell line MCF-7, following 72 hr treatment; type: functional; conditions: Homo sapiens, MCF7, 72 h
[2] = system: MDA-MB-468; test: (§2) Inhibitory activity of compound against breast cancer cell line MDA 468, following 72 hr treatment; type: functional; conditions: Homo sapiens, MDA-MB-468, 72 h
[3] = system: MDA-MB-468; test: as §2; type: functional, cell-based; conditions: Homo sapiens, MDA-MB-468, 72 h
[4] = system: MCF7; test: as §1; type: functional, cell-based; conditions: Homo sapiens, MCF7, 72 h
[5] = system: PC-3; test: Compound tested for growth inhibition of prostate cancer cell line PC-3; type: functional; conditions: Homo sapiens
[6] = system: UACC-257; test: Compound tested for growth inhibition of melanoma cell line UACC-257; type: functional; conditions: Homo sapiens
[7] = system: HCC 2998; test: Compound tested for growth inhibition of colon cancer cell line HCC2998; type: functional; conditions: Homo sapiens
[8] = system: U-251; test: Compound tested for growth inhibition of CNS cancer cell line U251; type: functional; conditions: Homo sapiens
[9] = system: LOX IMVI; test: Compound tested for growth inhibition of melanoma cell line LOX IMVI; type: functional; conditions: Homo sapiens
[10] = system: DU-145; test: Compound tested for growth inhibition of prostate cancer cell line DU-145; type: functional; conditions: Homo sapiens
[11] = system: MDA-N; test: Compound tested for growth inhibition of breast cancer cell line MDA-N; type: functional; conditions: Homo sapiens
[12] = system: MOLT-4; test: Compound tested for growth inhibition of leukemia cell line MOLT-4; type: functional; conditions: Homo sapiens
[13] = system: SK-MEL-2; test: Compound tested for growth inhibition of melanoma cell line SK-MEL-2; type: functional; conditions: Homo sapiens
[14] = system: SNB-19; test: Compound tested for growth inhibition of CNS cancer cell line SNB-19; type: functional; conditions: Homo sapiens
[15] = system: NCI-H322M; test: Compound tested for growth inhibition of non-small cell lung cancer cell line NCI-H322M; type: functional; conditions: Homo sapiens
[16] = system: NCI-H226; test: Compound tested for growth inhibition of non-small cell lung cancer cell line NCI-H226; type: functional; conditions: Homo sapiens
[17] = system: RPMI-8226; test: Compound tested for growth inhibition of leukemia cell line RPMI-8226; type: functional; conditions: Homo sapiens
[18] = system: UACC-62; test: Compound tested for growth inhibition of melanoma cell line UACC-62; type: functional; conditions: Homo sapiens
[19] = system: NCI-H522; test: Compound tested for growth inhibition of non-small cell lung cancer cell line NCI-H522; type: functional; conditions: Homo sapiens
[20] = system: SK-MEL-28; test: Compound tested for growth inhibition of melanoma cell line SK-MEL-28; type: functional; conditions: Homo sapiens
[21] = system: CAKI-1; test: Compound tested for growth inhibition of renal cancer cell line CAKI-1; type: functional; conditions: Homo sapiens
[22] = system: A549; test: Compound tested for growth inhibition of non-small cell lung cancer cell line A549/ATCC; type: functional; conditions: Homo sapiens
[23] = system: HT-29; test: Compound tested for growth inhibition of colon cancer cell line HT-29; type: functional; conditions: Homo sapiens
[24] = system: TK-10; test: Compound tested for growth inhibition of renal cancer cell line TK-10; type: functional; conditions: Homo sapiens
[25] = system: SW-620; test: Compound tested for growth inhibition of colon cancer cell line SW-620; type: functional; conditions: Homo sapiens
[26] = system: RXF 393; test: Compound tested for growth inhibition of renal cancer cell line RFX 393; type: functional; conditions: Homo sapiens
[27] = system: OVCAR-4; test: Compound tested for growth inhibition of ovarian cancer cell line OVCAR-4; type: functional; conditions: Homo sapiens
[28] = system: KM12; test: Compound tested for growth inhibition of colon cancer cell line KM12; type: functional; conditions: Homo sapiens
[29] = system: M14; test: Compound tested for growth inhibition of melanoma cell line M14; type: functional; conditions: Homo sapiens
[30] = system: IGROV-1; test: Compound tested for growth inhibition of ovarian cancer cell line […]; type: functional; conditions: Homo sapiens
[31] = system: SK-MEL-5; test: Compound tested for growth inhibition of melanoma cell line SK-MEL-5; type: functional; conditions: Homo sapiens
[32] = system: OVCAR-5; test: Compound tested for growth inhibition of ovarian cancer cell line OVCAR-5; type: functional; conditions: Homo sapiens
[33] = system: SK-OV-3; test: Compound tested for growth inhibition of ovarian cancer cell line SK-OV-3; type: functional; conditions: Homo sapiens
[34] = system: SF-295; test: Compound tested for growth inhibition of CNS cancer cell line SF-295; type: functional; conditions: Homo sapiens
[35] = system: UO-31; test: Compound tested for growth inhibition of renal cancer cell line UO-31; type: functional; conditions: Homo sapiens
[36] = system: OVCAR-8; test: Compound tested for growth inhibition of ovarian cancer cell line OVCAR-8; type: functional; conditions: Homo sapiens
[37] = system: NCI/ADR-RES; test: Compound tested for growth inhibition of breast cancer cell line NCI/ADR-RES; type: functional; conditions: Homo sapiens
[38] = system: 786-0; test: Compound tested for growth inhibition of renal cancer cell line 786-0; type: functional; conditions: Homo sapiens
[39] = system: MDA-MB-231; test: Compound tested for growth inhibition of breast cancer cell line MDA-MB-231/ATCC; type: functional; conditions: Homo sapiens
[40] = system: HOP-62; test: Compound tested for growth inhibition of non-small cell lung cancer cell line HOP-62; type: functional; conditions: Homo sapiens
[41] = system: ACHN; test: Compound tested for growth inhibition of renal cancer cell line ACHN; type: functional; conditions: Homo sapiens
[42] = system: SF-539; test: Compound tested for growth inhibition of CNS cancer cell line SF-539; type: functional; conditions: Homo sapiens
[43] = system: Hs-578T; test: Compound tested for growth inhibition of breast cancer cell line HS 578T; type: functional; conditions: Homo sapiens
[44] = system: K562; test: Compound tested for growth inhibition of leukemia cell line K-562; type: functional; conditions: Homo sapiens
[45] = system: T47D; test: Compound tested for growth inhibition of breast cancer cell line T-47-D; type: functional; conditions: Homo sapiens
[46] = system: HOP-92; test: Compound tested for growth inhibition of non-small cell lung cancer cell line HOP-92; type: functional; conditions: Homo sapiens
[47] = system: BT-549; test: Compound tested for growth inhibition of breast cancer cell line BT-549; type: functional; conditions: Homo sapiens
[48] = system: Malme-3M; test: Compound tested for growth inhibition of melanoma cell line MALME-3M; type: functional; conditions: Homo sapiens
[49] = system: SN12C; test: Compound tested for growth inhibition of renal cancer cell line SN12C; type: functional; conditions: Homo sapiens
[50] = system: OVCAR-3; test: Compound tested for growth inhibition of ovarian cancer cell line OVCAR-3; type: functional; conditions: Homo sapiens
[51] = system: MCF7; test: Compound tested for growth inhibition of breast cancer cell line MCF-7; type: functional; conditions: Homo sapiens
[52] = system: MDA-MB-435; test: Compound tested for growth inhibition of breast cancer cell line MDA-MB-435; type: functional; conditions: Homo sapiens
[53] = system: A498; test: Compound tested for growth inhibition of renal cancer cell line A498; type: functional; conditions: Homo sapiens
[54] = system: SNB-75; test: Compound tested for growth inhibition of CNS cancer cell line SNB-75; type: functional; conditions: Homo sapiens
[55] = system: NCI-H23; test: Compound tested for growth inhibition of non-small cell lung cancer cell line NCI-H23; type: functional; conditions: Homo sapiens
[56] = system: HCT-116; test: Compound tested for growth inhibition of colon cancer cell line HCT116; type: functional; conditions: Homo sapiens
[57] = system: HCT-15; test: Compound tested for growth inhibition of colon cancer cell line HCT-15; type: functional; conditions: Homo sapiens
[58] = system: NCI-H460; test: Compound tested for growth inhibition of non-small cell lung cancer cell line NCI-H460; type: functional; conditions: Homo sapiens
[59] = system: SF-268; test: Compound tested for growth inhibition of CNS cancer cell line SF-268; type: functional; conditions: Homo sapiens

IC50 [3]: < 1 nM
IC50 [4]: < 1 nM
Compound: Nc1ccc(-c2nc3ccccc3s2)cc1

GI50 [1]: 11 nM
GI50 [2]: 6.8 nM
Compound: C#Cc1cc(-c2nc3cc(F)ccc3s2)ccc1N

GI50 [1]: 110 nM
GI50 [2]: 30 nM
Compound: C#Cc1cc(-c2nc3c(F)cccc3s2)ccc1N

GI50 [1]: 680 nM
GI50 [2]: 400 nM
Compound: C[Si](C)(C)C#Cc1cc(-c2nc3ccc(F)cc3s2)ccc1N

GI50 [1]: 49 nM
GI50 [2]: 15 nM
Compound: C#Cc1cc(-c2nc3ccccc3s2)ccc1N

The next lines start with the compound.

Compound: C#Cc1cc(-c2nc3ccc(F)cc3s2)ccc1N
GI50 [1]: 110 nM
GI50 [2]: 23 nM

Compound: C[Si](C)(C)C#Cc1cc(-c2nc3cc(F)ccc3s2)ccc1N
GI50 [1]: 160 nM
GI50 [2]: 210 nM

Compound: N#Cc1cc(-c2nc3ccccc3s2)ccc1N
GI50 [1]: 580 nM
GI50 [2]: 340 nM

Compound: N#Cc1cc(-c2nc3ccc(F)cc3s2)ccc1N
GI50 [1]: 820 nM
GI50 [2]: 320 nM

Compound: C[Si](C)(C)C#Cc1cc(-c2nc3ccccc3s2)ccc1N
GI50 [1]: 710 nM
GI50 [2]: 560 nM

Compound: N#Cc1cc(-c2nc3cc(F)ccc3s2)ccc1N
GI50 [5]: 24 µM
GI50 [6]: > 100 µM
GI50 [7]: < 10 nM
GI50 [8]: 8.71 µM
GI50 [9]: > 100 µM
GI50 [10]: 51.3 µM
GI50 [11]: > 100 µM
GI50 [12]: > 100 µM
GI50 [13]: 13.5 µM
GI50 [14]: 9.12 µM
GI50 [15]: 11.5 nM
GI50 [16]: 14.5 µM
GI50 [17]: > 100 µM
GI50 [18]: 6.61 µM
GI50 [19]: 28.2 µM
GI50 [20]: > 100 µM
GI50 [21]: > 100 µM
GI50 [22]: 214 nM
GI50 [23]: 1620 nM
GI50 [24]: 30.2 nM
GI50 [25]: > 100 µM
GI50 [26]: 2400 nM
GI50 [27]: 1380 nM
GI50 [28]: 97.7 nM
GI50 [29]: 25.7 µM
GI50 [30]: < 10 nM
GI50 [31]: 537 nM
GI50 [32]: 37.1 nM
GI50 [33]: 20.9 µM
GI50 [34]: 16.6 µM
GI50 [1]: 5.7 nM
GI50 [2]: 7.8 nM
GI50 [35]: 49 µM
GI50 [36]: > 100 µM
GI50 [37]: > 100 µM
GI50 [38]: 31.6 µM
GI50 [39]: 7.41 µM
GI50 [40]: 17 µM
GI50 [41]: 759 nM
GI50 [42]: 8.71 µM
GI50 [43]: 8.51 µM
GI50 [44]: > 100 µM
GI50 [45]: 14.4 nM
GI50 [46]: 2630 nM
GI50 [47]: 3.8 µM
GI50 [48]: > 100 µM
GI50 [49]: > 100 µM
GI50 [50]: 28.2 µM
GI50 [51]: < 10 nM
GI50 [52]: > 100 µM
GI50 [53]: 8.51 µM
GI50 [54]: 832 nM
GI50 [55]: < 10 nM
GI50 [56]: 15.8 µM
GI50 [57]: 389 nM
GI50 [58]: < 10 nM
GI50 [59]: 12 µM

Compound: N#Cc1cc(-c2nc3c(F)cccc3s2)ccc1N
GI50 [1]: 180 nM
GI50 [2]: 80 nM

Compound: C[Si](C)(C)C#Cc1cc(-c2nc3c(F)cccc3s2)ccc1N
GI50 [1]: 520 nM
GI50 [2]: 230 nM
